{"source": "patent US20260041744A1", "about": "“Methods for Treating Pompe Disease” (Amicus Therapeutics, Inc., priority 2022, published 2026)", "key": {"CIMPR [1]": {"molecular_target": "T1, CIMPR (Homo sapiens, UniProt P11717)", "T1 sequence (P11717 41-2491, species assumed)": "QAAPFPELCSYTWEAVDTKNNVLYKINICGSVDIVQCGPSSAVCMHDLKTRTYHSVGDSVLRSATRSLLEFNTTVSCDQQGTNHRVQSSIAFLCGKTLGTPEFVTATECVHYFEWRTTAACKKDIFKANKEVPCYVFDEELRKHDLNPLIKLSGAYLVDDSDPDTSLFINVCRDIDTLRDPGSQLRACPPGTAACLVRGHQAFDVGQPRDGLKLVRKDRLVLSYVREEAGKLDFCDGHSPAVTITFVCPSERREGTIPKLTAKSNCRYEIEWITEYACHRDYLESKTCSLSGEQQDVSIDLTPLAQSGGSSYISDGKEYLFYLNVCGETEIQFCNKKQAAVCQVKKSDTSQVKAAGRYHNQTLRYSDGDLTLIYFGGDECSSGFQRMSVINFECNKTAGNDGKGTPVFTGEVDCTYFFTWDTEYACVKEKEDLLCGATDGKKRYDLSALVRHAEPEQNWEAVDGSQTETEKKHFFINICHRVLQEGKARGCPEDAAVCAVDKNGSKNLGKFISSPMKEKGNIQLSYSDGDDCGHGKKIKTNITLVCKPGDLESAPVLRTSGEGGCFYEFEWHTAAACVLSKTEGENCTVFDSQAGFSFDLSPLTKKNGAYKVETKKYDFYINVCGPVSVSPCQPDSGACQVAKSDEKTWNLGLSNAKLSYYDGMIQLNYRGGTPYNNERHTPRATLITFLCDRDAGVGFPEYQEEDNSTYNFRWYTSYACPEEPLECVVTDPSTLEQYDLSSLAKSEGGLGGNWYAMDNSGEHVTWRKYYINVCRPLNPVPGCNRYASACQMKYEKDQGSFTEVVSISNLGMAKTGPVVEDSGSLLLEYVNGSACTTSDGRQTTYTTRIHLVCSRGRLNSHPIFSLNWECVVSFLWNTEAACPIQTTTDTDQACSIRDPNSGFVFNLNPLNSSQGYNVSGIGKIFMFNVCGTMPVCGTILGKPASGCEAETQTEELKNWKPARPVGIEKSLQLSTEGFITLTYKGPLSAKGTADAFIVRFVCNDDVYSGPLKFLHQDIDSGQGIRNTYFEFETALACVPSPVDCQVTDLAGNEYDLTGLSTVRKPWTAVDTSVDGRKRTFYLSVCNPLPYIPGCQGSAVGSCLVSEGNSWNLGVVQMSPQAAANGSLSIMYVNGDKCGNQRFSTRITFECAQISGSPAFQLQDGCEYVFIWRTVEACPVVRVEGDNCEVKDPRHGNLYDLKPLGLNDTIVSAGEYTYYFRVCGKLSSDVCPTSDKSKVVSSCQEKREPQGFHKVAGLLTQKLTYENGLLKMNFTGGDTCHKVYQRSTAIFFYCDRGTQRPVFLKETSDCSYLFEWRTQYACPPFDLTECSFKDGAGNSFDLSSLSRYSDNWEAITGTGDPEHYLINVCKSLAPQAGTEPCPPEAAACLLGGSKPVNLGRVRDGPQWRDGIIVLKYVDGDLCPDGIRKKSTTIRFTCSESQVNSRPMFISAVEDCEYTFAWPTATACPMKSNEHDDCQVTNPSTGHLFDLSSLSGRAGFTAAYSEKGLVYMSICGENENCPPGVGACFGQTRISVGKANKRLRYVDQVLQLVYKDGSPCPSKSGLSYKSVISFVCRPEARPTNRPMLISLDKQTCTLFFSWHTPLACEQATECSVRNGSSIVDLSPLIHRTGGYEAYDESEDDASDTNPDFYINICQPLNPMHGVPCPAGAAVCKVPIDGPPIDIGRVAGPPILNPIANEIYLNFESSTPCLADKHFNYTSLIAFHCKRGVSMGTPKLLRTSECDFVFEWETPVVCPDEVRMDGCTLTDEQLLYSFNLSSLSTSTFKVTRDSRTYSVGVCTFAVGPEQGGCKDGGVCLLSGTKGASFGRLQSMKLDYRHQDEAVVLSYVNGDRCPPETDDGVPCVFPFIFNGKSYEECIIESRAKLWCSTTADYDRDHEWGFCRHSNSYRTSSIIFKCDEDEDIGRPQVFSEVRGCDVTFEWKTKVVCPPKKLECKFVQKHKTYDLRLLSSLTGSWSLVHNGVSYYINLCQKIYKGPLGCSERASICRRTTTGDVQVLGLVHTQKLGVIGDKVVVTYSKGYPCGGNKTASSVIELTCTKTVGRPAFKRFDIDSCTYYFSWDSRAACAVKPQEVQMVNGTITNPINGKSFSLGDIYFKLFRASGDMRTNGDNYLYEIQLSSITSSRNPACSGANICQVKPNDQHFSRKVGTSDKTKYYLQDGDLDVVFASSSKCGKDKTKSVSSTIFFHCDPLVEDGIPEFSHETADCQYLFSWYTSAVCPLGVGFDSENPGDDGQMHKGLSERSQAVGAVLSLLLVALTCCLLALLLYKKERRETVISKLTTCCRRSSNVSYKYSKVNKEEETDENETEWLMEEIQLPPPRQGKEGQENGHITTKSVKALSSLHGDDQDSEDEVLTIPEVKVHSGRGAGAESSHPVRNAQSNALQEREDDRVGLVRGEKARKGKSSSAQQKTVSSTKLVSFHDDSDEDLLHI", "assay": "CIMPR plate binding assay", "method": "In addition to having a greater percentage of rhGAA that can bind to the CIMPR, it is important to understand the quality of that interaction. LUMIZYME® and ATB200 receptor binding was determined using a CIMPR plate binding assay. Briefly, CIMPR-coated plates were used to capture GAA. Varying concentrations of rhGAA were applied to the immobilized receptor and unbound rhGAA was washed off. The amount of remaining rhGAA was determined by GAA activity.\nN-glycan analysis via MALDI-TOF mass spectrometry confirmed that on average each ATB200 molecule contains at least one natural bis-M6P N-glycan structure."}, "[2]": {"system": "normal and Pompe fibroblast cell lines", "assay": "Cellular uptake of rhGAA into fibroblasts (16-hr incubation, internalized GAA by 4MU-α-Glucoside hydrolysis)", "assay_type": "cell-based, human", "method": "The relative cellular uptake of ATB200 and LUMIZYME® rhGAA were compared using normal and Pompe fibroblast cell lines. Comparisons involved 5-100 nM of ATB200 according to the disclosure with 10-500 nM conventional rhGAA product LUMIZYME®. After 16-hr incubation, external rhGAA was inactivated with TRIS base and cells were washed 3-times with PBS prior to harvest. Internalized GAA measured by 4MU-α-Glucoside hydrolysis and was graphed relative to total cellular protein and the results appear in FIGS. 11A-11C.\nATB200 was also shown to be efficiently internalized into cells. […] ATB200 saturates cellular receptors at about 20 nM, while about 250 nM of LUMIZYME® is needed to saturate cellular receptors."}, "Gaa KO mice [3]": {"system": "Gaa KO mice", "assay": "Single fiber analysis (LAMP1/LC3 co-immunofluorescence, white gastrocnemius)", "assay_type": "in vivo, mouse", "details": "single fibers", "description": "FIG. 17 depicts co-immunofluorescent staining of LAMP1 (green) (see for example, “B”) and LC3 (red) (see, for example, “A”) in single fibers isolated from the white gastrocnemius of Gaa KO mice treated with a vehicle, alglucosidase alfa, or ATB200. “C” depicts clearance of autophagic debris and absence of enlarged lysosome. A minimum of 30 fibers were examined from each animal.\nAs a result, a significant portion of muscle fibers analyzed (36-60%) from ATB200-treated mice appeared normal or near-normal."}, "Gaa KO mice [4]": {"system": "Gaa KO mice", "assay": "Muscle fiber size (minimum Feret's diameter) in quadriceps, 12 biweekly injections", "assay_type": "in vivo, mouse", "details": "20 mg/kg, 12 biweekly bolus injections", "method": "FIG. 78 is a graph showing the effect of long-term cipaglucosidase alfa administration (20 mg/kg, 12 biweekly bolus injections) versus alglucosidase alfa on muscle fiber size by mean minimum fiber diameter (FD) in Gaa KO mouse quadriceps.\nGaa mice, like patients with Pompe disease, show a decrease in muscle fiber size as a consequence of muscle atrophy."}, "CIMPR [5]": {"molecular_target": "T1, CIMPR", "assay": "CIMPR Overlay Assay (far-western blot)", "assay_type": "binding", "method": "The CIMPR Overlay Assay is a variation on a far-western blot where proteins are separated on an SDS-PAGE, transferred to a nitrocellulose membrane, and incubated with purified CIMPR in the place of a primary antibody as in a conventional western blot. Binding of CIMPR to M6P-containing glycans on rhGAA proteins is then visualized by an anti-CIMPR antibody."}, "[6]": {"system": "Pompe patient fibroblasts", "assay": "Cellular uptake into Pompe patient fibroblasts (20 nM rhGAA, 18-hr)", "assay_type": "cell-based, human", "method": "The relative cellular uptake into Pompe patient fibroblasts of dephosphorylated cipaglucosidase alfa compared to mock-treated cipaglucosidase alfa and mock-treated alglucosidase alfa was assessed. Comparisons at a concentration of 20 nM of rhGAA was used to mimic the interstitial concentration of cipaglucosidase alfa that crosses into tissues, as shown in FIG. 77A. After an 18-hr incubation for enzyme uptake, cells were washed for 2 hours, harvested, lysed, and then processed for GAA activity and western blot analysis. Internalized GAA measured by 4MU-a-Glucoside hydrolysis and was graphed relative to total cellular protein and the results appear in FIG. 77B.\nHowever, cell uptake of PAP-treated cipaglucosidase alfa is abolished."}, "[7]": {"system": "4MU-a-Glucoside hydrolysis (GAA activity)", "assay": "GAA enzyme activity by 4MU-a-Glucoside hydrolysis after PAP treatment", "assay_type": "biochemical, human", "details": "PAP 18 hours", "method": "Removal of phosphoesters mono- and bis-M6P was completed by the enzyme purple acid phosphatase (PAP). PAP hydrolyzes phosphate esters and anhydrides. […] Cipaglucosidase alfa was treated with PAP for 18 hours, and alglucosidase alfa in the same reaction conditions but without PAP addition was used as a mock-treated control. PAP treatment results in complete removal of the bis-M6P peak and nearly all of the mono-M6P peak from the cipaglucosidase alfa LC-FLD chromatogram. Additional peaks are clearly observed in the neutral high mannose glycan region resulting from the removal of phosphates from mono- and bis-phosphorylated high mannose glycans."}, "[8]": {"assay": "Cipaglucosidase alfa pharmacokinetics in ERT-experienced adult patients with LOPD", "assay_type": "in vivo, human"}, "animals": {"system": "animals", "details": "in vivo", "description": "It is not known whether miglustat is secreted in breast milk. A risk to newborns/breastfed infants cannot be ruled out. The developmental and health benefits of breastfeeding should be considered, as well as the clinical need for the mother to receive co-administration therapy with cipaglucosidase alfa and miglustat, and any adverse reactions experienced by the breastfed child potentially related to the co-administration of cipaglucosidase alfa and miglustat or the underlying maternal condition. In some embodiments, breastfeeding is not allowed while taking cipaglucosidase alfa and miglustat. There are no clinical data on the effects of co-administration therapy of cipaglucosidase alfa and miglustat on fertility."}, "[9]": {"system": "adults with Pompe disease", "assay": "Study ATB200-02 (20 mg/kg cipaglucosidase alfa IV + 260 mg miglustat): 6MWT (6MWD, % predicted 6MWD);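 also: Open-label Phase I/II trial, ambulatory cohorts only, values are changes from baseline or counts relative to the baseline walk test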", "assay_type": "in vivo, human", "quoted_text": "The change from baseline (CFBL) in 6MWD, % predicted sitting FVC, manual muscle test (MMT) and biomarkers—urine glucose tetrasaccharide (Hex4) and serum creatine kinase (CK)—were assessed at regular intervals.\nThe 4 cohorts in the study are as follows: • Cohort 1: ERT-experienced (2 to 6 years) ambulatory subjects (11 subjects) • Cohort 2: ERT-experienced (≥2 years) non-ambulatory subjects (6 subjects) • Cohort 3: ERT-naïve ambulatory subjects (6 subjects)· • Cohort 4: ERT-experienced (≥7 years) ambulatory subjects (6 subjects)\nIn Study ATB200-02, motor function was evaluated in all ambulatory subjects (ie, Cohorts 1, 3, and 4) (Table 23, FIGS. 46A-46D)."}, "[10]": {"details": "human, in vivo", "description": "Blood sampling for plasma GAA protein and miglustat concentrations were taken for cohort 1 (ERT-experienced) and cohort 3 (ERT-naïve) only. To prevent any undue burden on patients, blood sampling for PK was not performed for non-ambulatory patients (cohort 2) and, due to similarity to cohort 1, those in cohort 4."}, "adult subjects with LOPD [11]": {"system": "adult subjects with LOPD", "assay": "Study ATB200-07 (OLE of PROPEL): 6MWD and % predicted 6MWD", "assay_type": "in vivo, human", "details": "Study ATB200-03/07, excluding the outlier", "description": "(§1) The study doses and schedule are maintained from Study ATB200-03.\n(§2) Efficacy data are presented in this summary as change from the baseline of Study ATB200-03 (OLE-ES Population)."}, "adult subjects with LOPD [12]": {"system": "adult subjects with LOPD", "assay": "Study ATB200-07 (OLE): sitting % predicted FVC", "assay_type": "in vivo, human", "details": "Study ATB200-03/07, excluding the outlier", "description": "as §1, §2"}, "ATB200": {"molecular_target": "ATB200 (Homo sapiens, UniProt P10253)", "assay": "Thermostability assay using SYPRO Orange"}, "[13]": {"system": "adults with Pompe disease", "assay": "Study ATB200-02: sitting % predicted FVC", "quoted_text": "Four cohorts of patients with Pompe disease were enrolled in the ATB200-02 study: • Cohort 1: ERT-experienced, aged 18-65 years, with 2-6 years prior ERT with 20 mg/kg alglucosidase alfa every 2 weeks (n=11) • Cohort 2: Non-ambulatory ERT-experienced, aged 18-65 years, with ≥2 years prior ERT with 20 mg/kg alglucosidase alfa every 2 weeks (n=6)· • Cohort 3: ERT-naïve, aged 18-65 years (n=6). • Cohort 4: ERT-experienced, aged 18-75 years, with ≥7 years prior ERT with 20 mg/kg alglucosidase alfa every 2 weeks (n=6)\nThe change from baseline (CFBL) in 6MWD, % predicted sitting FVC, manual muscle test (MMT) and biomarkers—urine glucose tetrasaccharide (Hex4) and serum creatine kinase (CK)—were assessed at regular intervals. Data with up to 36 months of follow-up in ERT-experienced and ERT-naïve patients is provided herein. […] Due to the staggered timing of patient enrollment, the number of patients with data currently available decreases at later time-points in this ongoing study."}, "[14]": {"details": "20 mg/kg in combination with Miglustat 260 mg"}, "[15]": {"details": "ERT-experienced, Study ATB200-02, Cohort 1 and 4 combined"}, "[16]": {"details": "ERT-naïve, Study ATB200-02, Cohort 3"}, "[17]": {"details": "ERT-experienced, Study ATB200-02"}}, "note": "“Also recorded” adds a separate entry of the source."}
{"substance": "ATB200: recombinant human acid α-glucosidase with a high content of N-glycans bearing mono-M6P and bis-M6P, produced from GA-ATB200 CHO cell line", "values": [{"measurement": "CIMPR binding compared with LUMIZYME", "setting": "CIMPR [1]; CIMPR-coated plates", "value": "bound to CIMPR significantly better than LUMIZYME®"}, {"measurement": "Kd", "setting": "CIMPR [1]; M6P receptor plate binding assays", "value": "2 to 4", "unit": "nM"}, {"measurement": "uptake efficiency constant (Kuptake)", "setting": "[2]; extrapolated from uptake curves", "value": "2-3 nm"}, {"measurement": "internalization into fibroblasts", "setting": "[2]; normal and Pompe fibroblast cells", "value": "internalized to a greater degree than the conventional rhGAA product LUMIZYME®"}, {"measurement": "rhGAA concentration that saturates cellular receptors", "setting": "[2]; normal and Pompe fibroblasts", "value": "about 20 nM"}, {"measurement": "Fibers with Normal or Near-normal Appearance", "setting": "Gaa KO mice [3]", "value": "36-60%"}, {"measurement": "Lysosome Enlargement", "setting": "Gaa KO mice [3]", "value": "dramatically decreased lysosome size; also recorded: Dramatic size"}, {"measurement": "muscle fiber size vs alglucosidase alfa", "setting": "Gaa KO mice [4]", "value": "significantly improved muscle fiber size"}, {"measurement": "CIMPR binding in overlay assay", "setting": "CIMPR [5]", "value": "binds with high affinity to CIMPR as shown by an intense band"}, {"measurement": "cellular uptake into Pompe fibroblasts", "setting": "[6]", "value": "better cellular uptake compared to alfaglucosidase alfa"}, {"measurement": "enzyme activity after PAP treatment", "setting": "[7]", "value": "retaining the enzyme activity"}, {"measurement": "AUC0-inf, mean", "setting": "[8]; [14]", "value": 1812, "unit": "µg·h/mL"}, {"measurement": "Cmax, mean", "setting": "[8]; [14]", "value": 345, "unit": "µg/mL"}, {"measurement": "AUC0-inf, mean", "setting": "[8]; 20 mg/kg without Miglustat", "value": 1410, "unit": "µg·h/mL"}, {"measurement": "Cmax, mean", "setting": "[8]; 20 mg/kg without Miglustat", "value": 325, "unit": "µg/mL"}, {"measurement": "excretion in milk", "setting": "animals", "value": "excretion of cipaglucosidase alfa in milk"}, {"measurement": "fertility, preclinical data", "setting": "animals", "value": "did not reveal any significant adverse reactions"}, {"measurement": "6MWD Baseline, Mean", "setting": "[9]; [15]", "value": 393.5}, {"measurement": "6MWD CFBL M12 (W 52) Mean", "setting": "[9]; [15]", "value": 33.5}, {"measurement": "6MWD CFBL M24 (W 104) Mean", "setting": "[9]; [15]", "value": 25.2}, {"measurement": "6MWD Baseline, Mean", "setting": "[9]; [16]", "value": 396.0}, {"measurement": "6MWD CFBL M12 (W 52) Mean", "setting": "[9]; [16]", "value": 57.0}, {"measurement": "6MWD CFBL M24 (W 104) Mean", "setting": "[9]; [16]", "value": 54.4}, {"measurement": "median time of peak signature peptide T09 concentrations (tmax)", "setting": "[10]", "value": "approximately 4 hours"}, {"measurement": "6MWD Baseline, Mean", "setting": "adult subjects with LOPD [11]; ERT-experienced", "value": 342.4}, {"measurement": "6MWD CFBL M12 (W 52) Mean", "setting": "adult subjects with LOPD [11]; ERT-experienced", "value": 16.3}, {"measurement": "6MWD CFBL M24 (W 104) Mean", "setting": "adult subjects with LOPD [11]; ERT-experienced", "value": 14.2}, {"measurement": "6MWD Baseline, Mean", "setting": "adult subjects with LOPD [11]; ERT-naïve", "value": 393.6}, {"measurement": "6MWD CFBL M12 (W 52) Mean", "setting": "adult subjects with LOPD [11]; ERT-naïve", "value": 33.4}, {"measurement": "6MWD CFBL M24 (W 104) Mean", "setting": "adult subjects with LOPD [11]; ERT-naïve", "value": 38.8}, {"measurement": "% Predicted FVC Baseline Mean", "setting": "adult subjects with LOPD [12]; ERT-experienced", "value": 67.7, "unit": "% predicted"}, {"measurement": "% Predicted FVC CFBL M12 (W 52) Mean", "setting": "adult subjects with LOPD [12]; ERT-experienced", "value": 0.1, "unit": "% predicted"}, {"measurement": "% Predicted FVC CFBL M24 (W 104) Mean", "setting": "adult subjects with LOPD [12]; ERT-experienced", "value": "−0.6", "unit": "% predicted"}, {"measurement": "% Predicted FVC Baseline Mean", "setting": "adult subjects with LOPD [12]; ERT-naïve", "value": 80.2, "unit": "% predicted"}, {"measurement": "% Predicted FVC CFBL M12 (W 52) Mean", "setting": "adult subjects with LOPD [12]; ERT-naïve", "value": "−4.7", "unit": "% predicted"}, {"measurement": "% Predicted FVC CFBL M24 (W 104) Mean", "setting": "adult subjects with LOPD [12]; ERT-naïve", "value": "−4.8", "unit": "% predicted"}, {"measurement": "Tm", "setting": "ATB200; pH 5.2", "value": 67.3, "unit": "°C"}, {"measurement": "Tm", "setting": "ATB200; pH 7.4", "value": 56.2, "unit": "°C"}, {"measurement": "Tm", "setting": "ATB200; pH 7.4 + 10 μM miglustat", "value": 61.6, "unit": "°C"}, {"measurement": "Tm", "setting": "ATB200; pH 7.4 + 30 μM miglustat", "value": 62.9, "unit": "°C"}, {"measurement": "Tm", "setting": "ATB200; pH 7.4 + 100 μM miglustat", "value": 66.0, "unit": "°C"}, {"measurement": "% Predicted FVC Baseline Mean", "setting": "[13]; [17]", "value": 57.4, "unit": "% predicted"}, {"measurement": "% Predicted FVC CFBL M12 (W 52) Mean", "setting": "[13]; [17]", "value": "−1.2", "unit": "% predicted"}, {"measurement": "% Predicted FVC CFBL M24 (W 104) Mean", "setting": "[13]; [17]", "value": 1.0, "unit": "% predicted"}, {"measurement": "% Predicted FVC Baseline Mean", "setting": "[13]; [16]", "value": 57.2, "unit": "% predicted"}, {"measurement": "% Predicted FVC CFBL M12 (W 52) Mean", "setting": "[13]; [16]", "value": 3.2, "unit": "% predicted"}, {"measurement": "% Predicted FVC CFBL M24 (W 104) Mean", "setting": "[13]; [16]", "value": 4.7, "unit": "% predicted"}]}
